Assay [1] has as its target T1, DNA topoisomerase 2-alpha (Homo sapiens, UniProt P11388). The assay can be described thus: Inhibition of human DNA topoisomerase 2 catalytic domain-mediated knotted bacteriophage P4Virl dell0 DNA unknotting up to 100 uM by agarose gel electrophoresis.
For assay [2], the species on record is Bos taurus. The assay can be described thus: Inhibition of calf thymus DNA topoisomerase 1 catalytic domain-mediated supercoiled Escherichia coli pUC8 DNA relaxation up to 100 uM after 30 mins by agarose gel electrophoresis.
Assay [3] concerns the target T1, DNA topoisomerase 2-alpha. The assay can be described thus: Inhibition of human DNA topoisomerase 2-mediated Escherichia coli pUC8 DNA cleavage enhancement assessed as reduction of linear DNA production after 30 mins by agarose gel electrophoresis in presence of 10 fold excess genistein.
For assay [4], the species on record is Bos taurus. The assay can be described thus: Inhibition of calf thymus DNA topoisomerase 1-mediated Escherichia coli pUC8 DNA cleavage enhancement assessed as absence of linear DNA production after 30 mins by agarose gel electrophoresis in presence of camptothecin.
A short description of assay [5]: Inhibition of calf thymus DNA topoisomerase 1 catalytic domain-mediated supercoiled Escherichia coli pUC8 DNA relaxation after 30 mins by agarose gel electrophoresis. Further details: species or system Bos taurus.
Assay [6] concerns the target T1, DNA topoisomerase 2-alpha. Kind of assay: Inhibition of human DNA topoisomerase 2-mediated Escherichia coli pUC8 DNA cleavage enhancement assessed as absence of linear DNA production at 100 ug/ml after 30 mins by agarose gel electrophoresis in presence of 100 ug/ml genistein.
The target in assay [7] is T1, DNA topoisomerase 2-alpha. Kind of assay: Enhancement of human DNA topoisomerase 2-mediated Escherichia coli pUC8 DNA cleavage assessed as production of linear DNA at 3 to 100 ug/ml after 30 mins by agarose gel electrophoresis.
The target in assay [8] is T1, DNA topoisomerase 2-alpha. The assay can be described thus: Inhibition of human DNA topoisomerase 2-mediated Escherichia coli pUC8 DNA cleavage enhancement assessed as absence of linear DNA production after 30 mins by agarose gel electrophoresis in presence of prunetin.
The target in assay [9] is T1, DNA topoisomerase 2-alpha. Kind of assay: Inhibition of human DNA topoisomerase 2 catalytic domain-mediated knotted bacteriophage P4Virl dell0 DNA unknotting by agarose gel electrophoresis.
The target in assay [10] is T1, DNA topoisomerase 2-alpha. Kind of assay: Enhancement of human DNA topoisomerase 2-mediated Escherichia coli pUC8 DNA cleavage after 30 mins by agarose gel electrophoresis. The arrangement: concentration or dose not given beside the values.
In assay [11] the target is T1, DNA topoisomerase 2-alpha. The assay can be described thus: Enhancement of human DNA topoisomerase 2-mediated Escherichia coli pUC8 DNA cleavage assessed as production of linear DNA at 100 ug/ml after 30 mins by agarose gel electrophoresis relative to total DNA.
In assay [12] the target is T1, DNA topoisomerase 2-alpha. Kind of assay: Enhancement of human DNA topoisomerase 2-mediated Escherichia coli pUC8 DNA cleavage assessed as production of linear DNA at 100 ug/ml after 30 mins by agarose gel electrophoresis relative to control.
In the next assay the test system is Escherichia coli. The assay can be described thus: Binding affinity to Escherichia coli pUC8 DNA assessed as production of linear DNA at 100 ug/ml after 30 mins by agarose gel electrophoresis.
The target in assay [13] is T1, DNA topoisomerase 2-alpha. The assay can be described thus: Enhancement of human DNA topoisomerase 2-mediated Escherichia coli pUC8 DNA cleavage assessed as production of linear DNA at 30 ug/ml after 30 mins by agarose gel electrophoresis.
For assay [14], the target named is T1, DNA topoisomerase 2-alpha. Kind of assay: Enhancement of human DNA topoisomerase 2-mediated Escherichia coli pUC8 DNA cleavage assessed as production of linear DNA at 100 ug/ml after 30 mins by agarose gel electrophoresis.
For assay [15], the species on record is Bos taurus. Kind of assay: Inhibition of calf thymus DNA topoisomerase 1 catalytic domain-mediated supercoiled Escherichia coli pUC8 DNA relaxation at 100 uM after 30 mins by agarose gel electrophoresis.
Assay [16] concerns the target T1, DNA topoisomerase 2-alpha. The assay can be described thus: Inhibition of human DNA topoisomerase 2 catalytic domain-mediated knotted bacteriophage P4Virl dell0 DNA unknotting at 100 uM by agarose gel electrophoresis.

Converted amounts (≈) assume the structure as drawn. The source made the active and inactive calls. No cut-off for these calls is given here.

T1 sequence (P11388 whole entry, the tested form may be a part): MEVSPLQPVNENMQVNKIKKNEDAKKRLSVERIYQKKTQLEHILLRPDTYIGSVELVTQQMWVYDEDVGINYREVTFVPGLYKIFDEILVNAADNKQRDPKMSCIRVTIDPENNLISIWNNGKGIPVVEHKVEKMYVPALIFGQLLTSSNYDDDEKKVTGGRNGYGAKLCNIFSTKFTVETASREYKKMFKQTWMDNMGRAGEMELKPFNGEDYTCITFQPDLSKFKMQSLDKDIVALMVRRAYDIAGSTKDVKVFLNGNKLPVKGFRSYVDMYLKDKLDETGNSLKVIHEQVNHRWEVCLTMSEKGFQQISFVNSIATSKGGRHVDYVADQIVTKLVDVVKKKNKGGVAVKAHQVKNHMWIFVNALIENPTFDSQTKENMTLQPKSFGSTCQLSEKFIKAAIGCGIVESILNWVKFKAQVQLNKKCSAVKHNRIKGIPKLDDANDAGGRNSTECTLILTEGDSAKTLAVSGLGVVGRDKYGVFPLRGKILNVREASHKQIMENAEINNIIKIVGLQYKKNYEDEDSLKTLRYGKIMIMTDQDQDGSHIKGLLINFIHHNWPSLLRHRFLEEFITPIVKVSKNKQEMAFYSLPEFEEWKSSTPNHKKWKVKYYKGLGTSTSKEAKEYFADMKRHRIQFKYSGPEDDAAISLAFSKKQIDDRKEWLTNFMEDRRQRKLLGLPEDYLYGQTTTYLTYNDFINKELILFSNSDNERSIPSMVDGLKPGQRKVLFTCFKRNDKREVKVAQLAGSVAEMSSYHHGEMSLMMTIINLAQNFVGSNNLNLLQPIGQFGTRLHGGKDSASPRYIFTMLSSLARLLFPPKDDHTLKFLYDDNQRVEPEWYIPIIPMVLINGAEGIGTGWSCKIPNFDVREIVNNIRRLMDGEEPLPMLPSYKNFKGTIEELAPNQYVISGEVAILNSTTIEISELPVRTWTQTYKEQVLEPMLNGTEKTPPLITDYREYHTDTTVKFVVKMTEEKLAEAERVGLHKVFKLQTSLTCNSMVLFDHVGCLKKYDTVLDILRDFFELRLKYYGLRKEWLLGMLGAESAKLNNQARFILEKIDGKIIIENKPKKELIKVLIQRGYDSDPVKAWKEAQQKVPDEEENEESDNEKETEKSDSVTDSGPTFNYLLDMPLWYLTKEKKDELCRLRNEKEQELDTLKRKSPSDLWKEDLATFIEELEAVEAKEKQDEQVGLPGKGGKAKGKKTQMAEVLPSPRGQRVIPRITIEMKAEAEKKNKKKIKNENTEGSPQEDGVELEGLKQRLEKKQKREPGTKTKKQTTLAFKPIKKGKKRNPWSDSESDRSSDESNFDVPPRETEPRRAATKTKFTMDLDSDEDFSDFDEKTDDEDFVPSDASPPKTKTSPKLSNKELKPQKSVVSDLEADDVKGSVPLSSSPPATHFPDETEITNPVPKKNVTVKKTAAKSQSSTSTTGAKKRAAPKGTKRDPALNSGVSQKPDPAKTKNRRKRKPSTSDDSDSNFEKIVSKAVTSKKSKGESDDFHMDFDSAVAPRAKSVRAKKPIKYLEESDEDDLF

`O=c1cc(-c2ccccc2)oc2ccccc12`: the outcome (in assay [1]; in the assay listed under Bos taurus [2]) was inactive.
`O=c1c(O)c(-c2cc(O)c(O)c(O)c2)oc2cc(O)cc(O)c12` [MYRICETIN]: the result (in assay [3]; in the assay filed under Bos taurus [4]; in [7]) was inactive. In [5], this molecule yielded an IC50 of 11.9 µg/mL (≈ 37.4 µM). The result in assay [6] and in assay [8] was Active.
On to `O=c1c(O)c(-c2ccccc2)oc2ccccc12`, for which the outcome (in assay [1]; in the assay listed under Bos taurus [2]) was inactive.
For the molecule `O=c1c(-c2ccc(O)cc2)coc2cc(O)c(O)cc12`, in the assay filed under Bos taurus [2], the result was inactive. Moreover, in assay [9], inhibition was half-maximal at 162 µM (IC50).
With `O=c1c(O)c(-c2ccc(O)cc2O)oc2cc(O)cc(O)c12` [MORIN], the concentration for half-maximal inhibition (IC50) was 135 µM in assay [9] and 42.1 µg/mL (≈ 139 µM) in assay [5]. Besides, the Activity in [10] is under 50%.
Regarding `O=C(CCc1ccc(O)cc1)c1c(O)cc(O)cc1O` [PHLORETIN], the result in the assay filed under Bos taurus [2] was inactive. Also, the IC50 in assay [9] was 168 µM.
On to `O=c1c(O)c(-c2ccc(O)c(O)c2)oc2cc(O)ccc12` [FISETIN], for which the concentration for half-maximal inhibition (IC50) in assay [9] is 28.6 µM; in [5], 20.6 µg/mL (≈ 72 µM). The Activity in assay [10] is under 50%.
`C[C@@H]1O[C@@H](OC[C@H]2O[C@@H](Oc3c(-c4ccc(O)c(O)c4)oc4cc(O)cc(O)c4c3=O)[C@H](O)[C@@H](O)[C@@H]2O)[C@H](O)[C@H](O)[C@H]1O`: the result (in assay [1]; in the assay listed under Bos taurus [2]) was inactive.
As to `O=c1cc(-c2ccccc2)oc2cccc(O)c12`, the result (in [1]; in the assay filed under Bos taurus [2]) was inactive. For the same molecule, the Activity in [10] is under 50%.
For `O=c1c(-c2ccc(O)cc2)coc2cc(O)cc(O)c12` [GENISTEIN], the Activity stood at 16.2% in assay [11] and 3.1 in assay [12]. In addition, the result in the assay on Escherichia coli and in the assay filed under Bos taurus [2] was inactive. Further, the outcome in assay [13] and in assay [14] was Active. This molecule also had an IC50 in assay [9] of 111 µM.
Take `Oc1cc(O)c2c(c1)O[C@H](c1ccc(O)c(O)c1)[C@@H](O)C2`: the outcome (in assay [1]; in the assay listed under Bos taurus [2]) was inactive.
With `O=c1c(O)c(-c2ccc(O)c(O)c2)oc2cc(O)cc(O)c12` [QUERCETIN], the values for the Activity in [11], in assay [12] and in assay [10] were 11.5%, 2.2 and 60%, respectively. In addition, in the assay with Escherichia coli, the outcome was inactive. In addition, the result (in the assay filed under Bos taurus [15]; in assay [16]) was Active. Moreover, the IC50 in assay [9] was 22.8 µM; in assay [5], 12.8 µg/mL (≈ 42.4 µM).
As for `O=c1c(O)c(-c2ccc(O)cc2)oc2cc(O)cc(O)c12`, the Activity in assay [11] was 8.3%; in [12], 1.6; in assay [10], 60%. Moreover, the outcome (in assay [1]; in the assay with Escherichia coli; in the assay filed under Bos taurus [2]) was inactive.
As for `O=c1cc(-c2ccccc2)oc2ccc(O)cc12`, the outcome (in assay [1]; in the assay listed under Bos taurus [2]) was inactive. Moreover, the Activity in assay [10] was under 50%.
Consider `O=c1c(-c2ccc(O)c(O)c2)coc2cc(O)ccc12`, for which the result (in assay [1]; in the assay listed under Bos taurus [2]) was inactive.
Consider `O=c1c(O)c(-c2ccccc2)oc2cc(O)cc(O)c12`, for which the result (in [1]; in the assay listed under Bos taurus [2]) was inactive.
Turning to `O=c1cc(-c2ccccc2)oc2cc(O)ccc12`, the outcome (in assay [1]; in the assay listed under Bos taurus [2]) was inactive.
Take `COc1cc(O)c2c(=O)c(-c3ccc(O)cc3)coc2c1`: the Activity in assay [11] was found to be 9.2%; in assay [12], 1.7; in assay [10] it was 60%. For the same molecule, the outcome (in assay [1]; in the assay with Escherichia coli; in the assay listed under Bos taurus [2]) was inactive.
Turning to `O=c1cc(-c2ccc(O)cc2)oc2cc(O)cc(O)c12`, the Activity in assay [11] was 8.7%; in [12], 1.6; in assay [10], 60%. For the same molecule, the result (in assay [1]; with Escherichia coli; in the assay listed under Bos taurus [2]) was inactive.
Take `O=c1c(-c2ccc(O)cc2)coc2cc(O)ccc12`: the result (in assay [1]; in the assay listed under Bos taurus [2]) was inactive.

The values above are taken from ChEMBL document CHEMBL1159219, “Flavonoids as DNA topoisomerase antagonists and poisons: structure-activity relationships” (J Nat Prod, 1995).
